The results in this text go back to ChEMBL document CHEMBL1201862, “PubChem BioAssay data set” (2004).

For one experiment, the target named is T1, Estrogen receptor (Homo sapiens, UniProt P03372).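 Note: potency for inhibiting coactivator peptide recruitment to the receptor.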
T1 sequence (P03372 whole entry): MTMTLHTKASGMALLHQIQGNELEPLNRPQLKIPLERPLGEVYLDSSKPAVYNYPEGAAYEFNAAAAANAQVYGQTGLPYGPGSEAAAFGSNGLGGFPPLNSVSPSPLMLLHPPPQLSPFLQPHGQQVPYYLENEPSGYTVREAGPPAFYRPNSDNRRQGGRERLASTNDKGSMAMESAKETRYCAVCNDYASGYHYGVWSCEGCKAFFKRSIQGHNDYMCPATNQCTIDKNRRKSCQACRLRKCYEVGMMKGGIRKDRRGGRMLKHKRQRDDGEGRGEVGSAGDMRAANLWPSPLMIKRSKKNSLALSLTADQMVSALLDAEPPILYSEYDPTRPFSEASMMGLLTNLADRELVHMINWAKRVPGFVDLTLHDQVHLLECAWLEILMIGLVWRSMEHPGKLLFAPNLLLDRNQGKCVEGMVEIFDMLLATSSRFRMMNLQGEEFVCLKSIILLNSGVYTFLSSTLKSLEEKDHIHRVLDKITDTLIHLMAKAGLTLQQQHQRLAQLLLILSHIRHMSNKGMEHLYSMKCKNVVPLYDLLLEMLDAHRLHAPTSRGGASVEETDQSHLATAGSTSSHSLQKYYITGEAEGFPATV

Experiment [1] concerns the target T2, Sentrin-specific protease 7 (Homo sapiens, UniProt Q9BQF6).
T2 sequence (Q9BQF6 whole entry): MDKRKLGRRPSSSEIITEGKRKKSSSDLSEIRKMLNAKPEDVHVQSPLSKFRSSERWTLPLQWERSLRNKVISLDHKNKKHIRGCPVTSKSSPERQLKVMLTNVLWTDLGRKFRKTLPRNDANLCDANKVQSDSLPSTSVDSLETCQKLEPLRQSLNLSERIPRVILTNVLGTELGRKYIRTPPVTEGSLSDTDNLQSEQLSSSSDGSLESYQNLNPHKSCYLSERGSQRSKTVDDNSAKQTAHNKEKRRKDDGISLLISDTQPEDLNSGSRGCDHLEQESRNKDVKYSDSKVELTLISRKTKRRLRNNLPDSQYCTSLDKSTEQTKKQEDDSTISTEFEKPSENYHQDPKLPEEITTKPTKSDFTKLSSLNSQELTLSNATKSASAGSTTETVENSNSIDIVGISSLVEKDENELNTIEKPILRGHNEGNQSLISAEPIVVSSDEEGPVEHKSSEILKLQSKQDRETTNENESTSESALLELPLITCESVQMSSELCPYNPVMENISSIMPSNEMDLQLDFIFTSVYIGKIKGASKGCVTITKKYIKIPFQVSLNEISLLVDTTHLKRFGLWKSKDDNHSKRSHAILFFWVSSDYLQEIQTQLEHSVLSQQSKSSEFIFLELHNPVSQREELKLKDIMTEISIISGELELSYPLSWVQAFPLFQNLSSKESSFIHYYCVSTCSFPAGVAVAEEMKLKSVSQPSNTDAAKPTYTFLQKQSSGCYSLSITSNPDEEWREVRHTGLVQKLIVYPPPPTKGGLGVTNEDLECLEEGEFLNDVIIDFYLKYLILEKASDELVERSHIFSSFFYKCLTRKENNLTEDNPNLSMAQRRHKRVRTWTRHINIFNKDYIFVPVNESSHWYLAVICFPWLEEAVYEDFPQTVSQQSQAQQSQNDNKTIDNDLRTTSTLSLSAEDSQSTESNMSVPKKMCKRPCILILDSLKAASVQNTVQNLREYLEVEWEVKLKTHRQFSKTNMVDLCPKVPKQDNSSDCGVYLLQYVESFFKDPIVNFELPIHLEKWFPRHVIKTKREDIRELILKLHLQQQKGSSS
The experiment in a line: inhibition of human SENP7 cleavage activity – biochemical, luminescence, SAR follow-up (AID 504497). The experiment is classed as functional.

The target of a further experiment is T3, Caspase-6 (Homo sapiens, UniProt P55212).
T3 sequence (P55212 whole entry): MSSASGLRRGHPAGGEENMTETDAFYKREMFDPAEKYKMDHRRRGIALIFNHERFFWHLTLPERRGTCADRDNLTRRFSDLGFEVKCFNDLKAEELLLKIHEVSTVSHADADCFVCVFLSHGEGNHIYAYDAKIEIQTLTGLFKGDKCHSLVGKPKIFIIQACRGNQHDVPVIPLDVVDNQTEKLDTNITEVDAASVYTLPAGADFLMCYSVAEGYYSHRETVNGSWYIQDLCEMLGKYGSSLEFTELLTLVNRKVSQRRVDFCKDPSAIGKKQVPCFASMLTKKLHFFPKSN
The experiment in a line: inhibition of CASP6 peptide cleavage – biochemical, VEID-R110 fluorescence, cherry-pick, dose response (AID 720632).

The target of the next experiment is SUMO-activating enzyme (Homo sapiens, UniProt Q9UBT2). Nature of the experiment: blockers of UBC9-mediated SUMO conjugation – biochemical, AlphaScreen, SUMOylation inhibitor project, confirmation (AID 2018). The experiment is classed as functional.
Experiment [2] concerns the target T4, Mannose-6-phosphate isomerase (Homo sapiens, UniProt P34949).
T4 sequence (P34949 whole entry): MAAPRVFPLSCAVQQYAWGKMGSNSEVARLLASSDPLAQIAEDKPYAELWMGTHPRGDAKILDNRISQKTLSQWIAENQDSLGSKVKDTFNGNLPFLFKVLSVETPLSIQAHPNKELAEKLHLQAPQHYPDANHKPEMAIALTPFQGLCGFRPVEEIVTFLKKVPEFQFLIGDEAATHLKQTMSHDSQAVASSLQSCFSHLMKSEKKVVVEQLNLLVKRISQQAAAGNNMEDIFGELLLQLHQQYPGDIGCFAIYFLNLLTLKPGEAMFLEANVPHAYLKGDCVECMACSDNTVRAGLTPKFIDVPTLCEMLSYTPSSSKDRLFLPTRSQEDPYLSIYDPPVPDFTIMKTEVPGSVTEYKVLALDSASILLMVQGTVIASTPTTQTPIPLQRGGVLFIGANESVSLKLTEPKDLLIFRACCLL
Nature of the experiment: MPI inhibition at elevated mannose 6-phosphate – biochemical, fluorescence intensity, high mannose 6-phosphate, primary screen (AID 1220).

For experiment [3], the target named is Mitogen-activated protein kinase 14 (Homo sapiens, UniProt Q16539). The experiment is classed as functional.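 Note: part of a kinome-wide panel, MAPK14 entry.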
For experiment [4], the target named is Casein kinase I isoform alpha (Homo sapiens, UniProt P48729). The format is functional.
In experiment [5] the target is Rho-associated protein kinase 1 (Homo sapiens, UniProt Q13464). The format is functional.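 Note: measured within a broad kinome-wide panel profiling many kinases.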
The target in experiment [6] is Tyrosine-protein kinase BTK (Homo sapiens, UniProt Q06187). The format is functional.
The target in experiment [7] is Mitogen-activated protein kinase 9 (Homo sapiens, UniProt P45984). The format is functional.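 Note: value from a kinome panel profiling assay, MAPK9 panel entry.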
For experiment [8], the target named is Tyrosine-protein kinase JAK3 (Homo sapiens, UniProt P52333). The format is functional.
The target of experiment [9] is Dual specificity protein kinase CLK2 (Homo sapiens, UniProt P49760). The experiment is classed as functional.

Activity calls are given as the source filed them.

Chain of Mitogen-activated protein kinase 9 (P45984 whole entry): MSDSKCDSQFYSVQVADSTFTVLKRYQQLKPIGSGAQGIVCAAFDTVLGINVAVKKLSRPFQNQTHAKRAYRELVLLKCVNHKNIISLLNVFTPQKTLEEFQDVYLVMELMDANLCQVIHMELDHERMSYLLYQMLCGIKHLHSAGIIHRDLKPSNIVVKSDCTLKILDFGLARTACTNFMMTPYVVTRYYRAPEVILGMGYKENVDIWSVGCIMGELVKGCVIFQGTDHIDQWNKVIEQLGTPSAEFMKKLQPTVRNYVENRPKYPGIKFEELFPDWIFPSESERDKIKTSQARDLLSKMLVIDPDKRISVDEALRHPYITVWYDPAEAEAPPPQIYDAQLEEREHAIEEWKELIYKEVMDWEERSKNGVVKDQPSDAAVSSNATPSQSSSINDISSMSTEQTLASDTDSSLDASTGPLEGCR
Chain of SUMO-activating enzyme (Q9UBE0 whole entry): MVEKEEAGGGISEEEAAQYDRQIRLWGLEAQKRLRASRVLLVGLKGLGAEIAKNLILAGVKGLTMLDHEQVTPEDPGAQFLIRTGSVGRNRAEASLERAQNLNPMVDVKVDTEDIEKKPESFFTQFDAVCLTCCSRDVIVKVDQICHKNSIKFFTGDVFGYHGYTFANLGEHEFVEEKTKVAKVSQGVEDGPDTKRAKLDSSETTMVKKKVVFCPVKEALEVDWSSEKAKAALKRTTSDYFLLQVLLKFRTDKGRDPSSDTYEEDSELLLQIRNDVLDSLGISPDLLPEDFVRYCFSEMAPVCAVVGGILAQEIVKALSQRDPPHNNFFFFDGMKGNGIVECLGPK
Chain of SUMO-activating enzyme (Q9UBT2 whole entry): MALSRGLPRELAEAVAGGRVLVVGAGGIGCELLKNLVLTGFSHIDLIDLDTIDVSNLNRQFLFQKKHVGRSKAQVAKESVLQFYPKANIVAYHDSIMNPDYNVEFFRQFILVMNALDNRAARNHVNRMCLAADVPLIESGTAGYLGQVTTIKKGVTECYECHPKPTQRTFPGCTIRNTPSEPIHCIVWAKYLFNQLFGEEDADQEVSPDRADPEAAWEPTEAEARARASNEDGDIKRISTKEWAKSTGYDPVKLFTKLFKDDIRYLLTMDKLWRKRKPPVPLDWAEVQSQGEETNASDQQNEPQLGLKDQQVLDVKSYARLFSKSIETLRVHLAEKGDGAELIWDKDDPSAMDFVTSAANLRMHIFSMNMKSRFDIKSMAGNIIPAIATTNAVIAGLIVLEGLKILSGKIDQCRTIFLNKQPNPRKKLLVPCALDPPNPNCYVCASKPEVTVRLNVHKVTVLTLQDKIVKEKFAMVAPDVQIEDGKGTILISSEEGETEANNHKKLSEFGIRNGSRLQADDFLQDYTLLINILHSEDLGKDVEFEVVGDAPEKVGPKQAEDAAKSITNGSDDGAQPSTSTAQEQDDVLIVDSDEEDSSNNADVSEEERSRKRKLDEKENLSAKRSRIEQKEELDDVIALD
Chain of Mitogen-activated protein kinase 14 (Q16539 whole entry, canonical isoform): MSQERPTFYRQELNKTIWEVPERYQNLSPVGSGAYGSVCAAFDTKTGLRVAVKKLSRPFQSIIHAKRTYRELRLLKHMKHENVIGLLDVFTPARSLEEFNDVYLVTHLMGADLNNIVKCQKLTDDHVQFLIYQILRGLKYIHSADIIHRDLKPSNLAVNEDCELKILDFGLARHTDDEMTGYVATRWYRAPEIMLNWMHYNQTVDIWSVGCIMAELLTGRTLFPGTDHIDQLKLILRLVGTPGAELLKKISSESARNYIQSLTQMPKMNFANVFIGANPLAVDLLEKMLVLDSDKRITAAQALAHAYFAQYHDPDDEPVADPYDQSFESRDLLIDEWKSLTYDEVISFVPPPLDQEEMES
Chain of Rho-associated protein kinase 1 (Q13464 whole entry): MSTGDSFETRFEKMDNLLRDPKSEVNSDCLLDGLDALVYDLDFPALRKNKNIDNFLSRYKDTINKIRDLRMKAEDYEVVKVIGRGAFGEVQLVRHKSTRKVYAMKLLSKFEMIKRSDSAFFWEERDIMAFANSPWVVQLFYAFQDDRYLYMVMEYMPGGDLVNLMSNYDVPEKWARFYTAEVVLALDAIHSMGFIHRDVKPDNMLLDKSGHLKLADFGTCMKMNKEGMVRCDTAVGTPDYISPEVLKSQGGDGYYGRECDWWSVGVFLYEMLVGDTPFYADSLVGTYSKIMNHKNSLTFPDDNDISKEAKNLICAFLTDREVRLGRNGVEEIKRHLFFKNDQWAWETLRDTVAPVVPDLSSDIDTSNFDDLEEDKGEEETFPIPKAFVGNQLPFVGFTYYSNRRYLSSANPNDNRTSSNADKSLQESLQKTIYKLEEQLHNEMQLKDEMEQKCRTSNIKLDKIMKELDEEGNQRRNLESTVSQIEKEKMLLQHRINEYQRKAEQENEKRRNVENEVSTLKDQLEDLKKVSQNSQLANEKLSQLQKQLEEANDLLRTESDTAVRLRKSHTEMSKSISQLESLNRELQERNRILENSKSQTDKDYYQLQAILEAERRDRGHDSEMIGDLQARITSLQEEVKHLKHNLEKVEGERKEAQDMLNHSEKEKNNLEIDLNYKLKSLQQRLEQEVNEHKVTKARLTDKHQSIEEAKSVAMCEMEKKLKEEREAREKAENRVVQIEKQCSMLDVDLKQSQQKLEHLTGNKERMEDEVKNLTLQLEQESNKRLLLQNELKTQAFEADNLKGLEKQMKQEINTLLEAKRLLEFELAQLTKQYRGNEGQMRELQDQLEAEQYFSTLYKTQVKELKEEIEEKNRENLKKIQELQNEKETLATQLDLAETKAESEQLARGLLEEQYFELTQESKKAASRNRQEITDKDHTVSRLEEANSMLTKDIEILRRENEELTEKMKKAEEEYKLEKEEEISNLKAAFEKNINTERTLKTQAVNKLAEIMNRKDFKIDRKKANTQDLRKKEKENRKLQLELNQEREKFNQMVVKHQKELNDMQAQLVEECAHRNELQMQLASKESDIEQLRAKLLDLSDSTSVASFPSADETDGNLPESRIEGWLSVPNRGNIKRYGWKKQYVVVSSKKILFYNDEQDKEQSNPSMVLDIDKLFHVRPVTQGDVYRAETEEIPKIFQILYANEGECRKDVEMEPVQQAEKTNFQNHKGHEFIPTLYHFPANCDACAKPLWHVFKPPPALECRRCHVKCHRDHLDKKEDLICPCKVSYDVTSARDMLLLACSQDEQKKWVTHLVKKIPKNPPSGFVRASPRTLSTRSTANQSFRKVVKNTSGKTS
Chain of Casein kinase I isoform alpha (P48729 whole entry, canonical isoform): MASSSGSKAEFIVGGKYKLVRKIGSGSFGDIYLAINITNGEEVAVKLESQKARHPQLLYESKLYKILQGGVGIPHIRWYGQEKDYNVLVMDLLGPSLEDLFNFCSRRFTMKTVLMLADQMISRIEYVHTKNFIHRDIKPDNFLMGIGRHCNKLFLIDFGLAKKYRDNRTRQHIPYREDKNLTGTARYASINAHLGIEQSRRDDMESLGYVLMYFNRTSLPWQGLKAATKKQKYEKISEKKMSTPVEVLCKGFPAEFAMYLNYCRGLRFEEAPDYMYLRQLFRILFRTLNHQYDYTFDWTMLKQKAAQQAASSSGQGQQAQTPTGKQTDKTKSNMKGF
Chain of Dual specificity protein kinase CLK2 (P49760 whole entry): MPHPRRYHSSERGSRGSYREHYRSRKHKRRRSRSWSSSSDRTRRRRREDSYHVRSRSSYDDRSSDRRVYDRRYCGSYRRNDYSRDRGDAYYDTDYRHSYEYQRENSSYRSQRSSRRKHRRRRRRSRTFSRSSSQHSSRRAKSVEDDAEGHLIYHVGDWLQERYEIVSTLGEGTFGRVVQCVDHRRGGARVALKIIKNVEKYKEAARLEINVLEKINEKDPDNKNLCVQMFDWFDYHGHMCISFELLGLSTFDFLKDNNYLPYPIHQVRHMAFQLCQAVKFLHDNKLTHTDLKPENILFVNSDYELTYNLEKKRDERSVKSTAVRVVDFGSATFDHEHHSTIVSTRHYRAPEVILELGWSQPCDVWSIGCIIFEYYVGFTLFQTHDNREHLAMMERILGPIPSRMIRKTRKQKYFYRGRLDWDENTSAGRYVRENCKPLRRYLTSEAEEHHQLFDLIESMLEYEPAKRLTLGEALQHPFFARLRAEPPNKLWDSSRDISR
Chain of Tyrosine-protein kinase BTK (Q06187 whole entry): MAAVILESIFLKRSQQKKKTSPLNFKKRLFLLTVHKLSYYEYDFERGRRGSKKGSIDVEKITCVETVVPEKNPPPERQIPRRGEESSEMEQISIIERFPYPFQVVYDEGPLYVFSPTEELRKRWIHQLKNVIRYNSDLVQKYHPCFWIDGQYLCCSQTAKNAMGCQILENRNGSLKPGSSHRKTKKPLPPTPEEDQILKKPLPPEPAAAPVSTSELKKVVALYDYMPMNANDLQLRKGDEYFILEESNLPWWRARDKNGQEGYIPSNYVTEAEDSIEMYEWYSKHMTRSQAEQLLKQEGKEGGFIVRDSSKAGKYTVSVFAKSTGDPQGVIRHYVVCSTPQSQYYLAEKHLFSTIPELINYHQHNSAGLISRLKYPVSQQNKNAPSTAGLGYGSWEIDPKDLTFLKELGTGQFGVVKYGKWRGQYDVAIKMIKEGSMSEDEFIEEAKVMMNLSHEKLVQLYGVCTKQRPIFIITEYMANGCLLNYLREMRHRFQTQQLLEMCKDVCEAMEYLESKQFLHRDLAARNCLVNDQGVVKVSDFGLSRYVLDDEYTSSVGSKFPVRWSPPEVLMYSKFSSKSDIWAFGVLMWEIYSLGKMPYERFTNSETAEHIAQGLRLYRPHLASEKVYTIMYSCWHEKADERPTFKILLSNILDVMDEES

As to `O=C(O)c1ccc2c(c1)[C@@H]1C=CC[C@@H]1[C@H](c1ccccn1)N2`, the IC50 at Estrogen receptor is 9.53 µM (active).

On to `COc1cc2cc(NC(C)=O)cc(NCc3ccccc3)c2cc1OC`, for which the 50% inhibitory concentration (IC50) in experiment [1] is 67.6 µM (active).

In the case of `Oc1nc(Nc2ccc(F)cc2)cc2ccccc12`, the AC50 on Caspase-6 is 942 nM (active). In addition, the IC50 at SUMO-activating enzyme is 1.12 µM (active).

Consider `CN(C)c1cc(N/N=C\c2ccccc2)nc(N(C)C)n1`, for which the IC50 is 16.2 µM (active) in [1], > 50 µM (not active) in experiment [2] and 1.6 µM (active) on SUMO-activating enzyme.

In the case of `O=C1Nc2cc(-c3ccc(O)cc3)ccc2C1=Cc1ccc[nH]1`, the Ki was 2.51 µM (active) in experiment [3]; > 3.98 µM (inactive) in experiment [4]; > 3.98 µM (inactive) in experiment [5]; > 6.31 µM (inactive) in experiment [6]; > 3.98 µM (inactive) in experiment [7]; 20 nM (active) in experiment [8]. Besides, the Ki in [9] was > 3.98 µM (inactive).

For `NC(COc1cncc(-c2ccc3c(c2)C(=Cc2ccc[nH]2)C(=O)N3)c1)Cc1ccccc1` (stereo unspecified), the Ki in [3] was 0.631 µM (active); in experiment [4], 2 µM (active); in experiment [5], 0.00398 µM (active); in experiment [6], 3.98 µM (active); in experiment [7], 1.26 µM (active); in experiment [8], 20 nM (active). Further, the Ki in experiment [9] is 0.000794 µM (active).
